Measured values taken from BindingDB's records for doi:10.1016/S0960-894X(01)80331-0 (1994).

Assays:
[1] = In Vitro Binding affinity againist 5-HT1A receptor by displacing [3H]8-OH-DPAT from pig cortex
[2] = In Vitro Binding affinity againist 5-hydroxytryptamine 2C receptor by displacing [3H]mesulergine from pig cortex
[3] = In Vitro Binding affinity againist 5-hydroxytryptamine 1D receptor by displacing [125I]GTI from pig caudate

Row | IC50 [1] [nM] | IC50 [2] [nM] | IC50 [3] [nM] | SMILES
1 | 72 | 8130 | 776 | NCCC1COc2ccc(C(N)=O)cc21 (stereo unspecified)
2 | 4.6 | 661 | 43 | NCCc1coc2ccc(C(N)=O)cc12
